Activity calls are given as the source filed them. The calls are words filed in the database; no cut-off is given here.
What was measured:
[1] = biological target: 5-hydroxytryptamine receptor 2A (Homo sapiens, UniProt P28223); assay: Displacement of [3H]LSD from human 5-HT2A receptor expressed in HEK293 cell membrane incubated for 90 mins by microbeta liquid scintillation counting method; format: cell membranes
[2] = biological target: 5-hydroxytryptamine receptor 2B (Homo sapiens, UniProt P41595); assay: Displacement of [3H]LSD from human 5-HT2B receptor expressed in HEK293 cell membrane incubated for 90 mins by microbeta liquid scintillation counting method; format: cell membranes
[3] = test system: Mus musculus; assay: Psychedelic effect in C57BL/6J mouse assessed as number of head-twitch responses by visual observation at 3 mg/kg, po measured for 3 mins at 160 to 170 min; format: functional; settings: 0.05 h
[4] = organism: Homo sapiens; assay: Selectivity ratio, ratio of Ki for human 5-HT2B receptor to human 5-HT2A receptor
[5] = biological target: T1, 5-hydroxytryptamine receptor 2C (Homo sapiens, UniProt P28335); assay: Agonist activity at human 5-HT2C receptor expressed in HEK293 cells assessed as IP2 production measured after 30 mins incubation by HTRF assay; format: functional, cell-based
T1 sequence (P28335 whole entry): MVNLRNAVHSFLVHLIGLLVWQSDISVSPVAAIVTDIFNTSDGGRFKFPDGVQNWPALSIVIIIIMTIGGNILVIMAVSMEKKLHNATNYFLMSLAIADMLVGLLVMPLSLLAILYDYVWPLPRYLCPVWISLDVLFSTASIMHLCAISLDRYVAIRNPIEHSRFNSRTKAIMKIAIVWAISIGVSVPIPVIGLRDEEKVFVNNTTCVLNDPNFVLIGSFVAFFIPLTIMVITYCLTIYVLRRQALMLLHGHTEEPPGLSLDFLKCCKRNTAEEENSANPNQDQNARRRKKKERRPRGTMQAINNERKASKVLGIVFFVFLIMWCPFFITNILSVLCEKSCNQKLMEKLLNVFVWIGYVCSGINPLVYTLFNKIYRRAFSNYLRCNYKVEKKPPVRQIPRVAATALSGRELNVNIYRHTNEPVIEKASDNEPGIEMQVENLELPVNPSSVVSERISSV

[6] = biological target: 5-hydroxytryptamine receptor 2C (Homo sapiens) (UniProt P28335); assay: Agonist activity at human 5-HT2C receptor expressed in HEK293 cells assessed as maximal IP2 production measured after 30 mins incubation by HTRF assay relative to control; format: functional, cell-based; settings: filed as agonist
[7] = test system: Mus musculus; assay: Psychedelic effect in sc dosed C57BL/6J mouse assessed as induction of 5-HT2A receptor dependent head-twitch responses by visual observation measured within 10 mins; format: functional, organism-based; settings: dose 0.1-3 mg/kg
[8] = Cmax in mouse C57BL/6J brain at 3 mg/kg, sc measured after 2 hrs; format: ADME, organism-based
[9] = Cmax in mouse C57BL/6J brain at 3 mg/kg, po measured after 1 hrs; format: ADME, organism-based
[10] = test system: Mus musculus; assay: Psychedelic effect in C57BL/6J mouse assessed as induction of 5-HT2A receptor dependent head-twitch responses by visual observation at 3 mg/kg, sc in presence of ketanserin 1 mg/kg, sc measured after 24 hrs; format: functional, organism-based
[11] = test system: Mus musculus; assay: Psychedelic effect in C57BL/6J mouse assessed as development of tolerance/ tachyphylaxis at 0.3 mg/kg, sc measured on day 4 by head-twitch responses test; format: functional, organism-based; settings: time 4.0 day
[12] = Ex vivo binding in C57BL/6J mouse brain frontal cortex assessed as specific binding [3H]Cimbi-36 at 1 mg/kg, sc measured after 300 mins by liquid scintillation counting analysis (reference value: 1092 +/- 53); format: functional; settings: 5 h
[13] = Ex vivo binding in C57BL/6J mouse brain frontal cortex assessed as inhibition of [3H]Cimbi-36 binding at 1 mg/kg, sc measured after 15 mins by liquid scintillation counting analysis (reference value: 0%); format: functional; settings: 0.25 h
[14] = test system: Mus musculus; assay: Induction of neuroplasticity in C57BL/6J mouse assessed as increase in Homer1 mRNA expression in brain frontal cortex at 3 mg/kg, sc single dose by RT-PCR analysis; format: functional, organism-based
[15] = test system: Hippocampus; assay: Induction of neuroplasticity in C57BL/6J mouse assessed as increase in BDNF mRNA expression in brain hippocampus at 3 mg/kg, sc single dose by RT-PCR analysis; format: functional, organism-based
[16] = test system: Hippocampus; assay: Induction of neuroplasticity in C57BL/6J mouse assessed as increase in EGR2 mRNA expression in brain hippocampus at 3 mg/kg, sc single dose by RT-PCR analysis; format: functional, organism-based
[17] = test system: Hippocampus; assay: Induction of neuroplasticity in C57BL/6J mouse assessed as increase in EGR2 mRNA expression in brain hippocampus at 0.3 mg/kg, sc single dose by RT-PCR analysis; format: functional, organism-based
[18] = Metabolic stability in dog liver S9 fractions assessed as half life; format: ADME, subcellular, Canis lupus familiaris; settings: liver S9 fraction
[19] = Metabolic stability in human hepatocytes assessed as half life at 10 uM; format: ADME, cell-based, Hepatocyte
[20] = Drug metabolism in rat hepatocytes assessed as formation of sulfoxide metabolites at 10 uM by HRAMS analysis; format: ADME, cell-based, Hepatocyte
[21] = Initial plasma concentration in Wistar rat at 1 mg/kg, iv measured upto 48 hrs; format: ADME, organism-based
[22] = Clearance in Wistar rat plasma at 1 mg/kg, iv measured upto 48 hrs; format: ADME, organism-based
[23] = Renal clearance in Wistar rat plasma at 1 mg/kg, iv measured upto 48 hrs; format: ADME, organism-based
[24] = AUClast in Wistar rat plasma at 5 mg/kg, po measured upto 48 hrs; format: ADME, organism-based
[25] = Cmax in Wistar rat brain at 1 mg/kg, iv measured upto 48 hrs; format: ADME, organism-based
[26] = Tmax in Wistar rat brain at 5 mg/kg, po measured upto 48 hrs; format: ADME, organism-based
[27] = AUClast in Wistar rat brain at 5 mg/kg, po measured upto 48 hrs; format: ADME, organism-based
[28] = Brain to plasma ratio in Wistar rat at 5 mg/kg, po measured upto 48 hrs; format: ADME, organism-based; settings: brain and plasma, read-out: BPR
[29] = Cmax in male Sprague-Dawley rat plasma at 1 mg/kg, iv measured upto 8 hrs by LC-MS/MS analysis; format: ADME, organism-based
[30] = Tmax in male Sprague-Dawley rat plasma at 1 mg/kg, iv measured upto 8 hrs by LC-MS/MS analysis; format: ADME, organism-based
[31] = Half life in male Sprague-Dawley rat plasma at 1 mg/kg, iv measured upto 8 hrs by LC-MS/MS analysis; format: ADME, organism-based
[32] = AUCinf in male Sprague-Dawley rat plasma at 1 mg/kg, iv measured upto 8 hrs by LC-MS/MS analysis; format: ADME, organism-based
[33] = Clearance in male Sprague-Dawley rat plasma at 1 mg/kg, iv measured upto 8 hrs by LC-MS/MS analysis; format: ADME, organism-based
[34] = AUClast in male Sprague-Dawley rat brain at 1 mg/kg, iv measured upto 8 hrs by LC-MS/MS analysis; format: ADME, organism-based
[35] = Initial plasma concentration in beagle dog at 0.4 mg/kg, iv measured upto 24 hrs; format: ADME, organism-based, Canis lupus familiaris
[36] = Half life in beagle dog at 0.4 mg/kg, iv measured upto 24 hrs; format: ADME, organism-based, Canis lupus familiaris; settings: in vivo
[37] = AUCinf in beagle dog at 0.4 mg/kg, iv measured upto 24 hrs; format: ADME, organism-based, Canis lupus familiaris; settings: in vivo
[38] = MRTinf in beagle dog at 0.4 mg/kg, iv measured upto 24 hrs; format: ADME, organism-based, Canis lupus familiaris; settings: in vivo

Sequence of 5-hydroxytryptamine receptor 2A (P28223 whole entry): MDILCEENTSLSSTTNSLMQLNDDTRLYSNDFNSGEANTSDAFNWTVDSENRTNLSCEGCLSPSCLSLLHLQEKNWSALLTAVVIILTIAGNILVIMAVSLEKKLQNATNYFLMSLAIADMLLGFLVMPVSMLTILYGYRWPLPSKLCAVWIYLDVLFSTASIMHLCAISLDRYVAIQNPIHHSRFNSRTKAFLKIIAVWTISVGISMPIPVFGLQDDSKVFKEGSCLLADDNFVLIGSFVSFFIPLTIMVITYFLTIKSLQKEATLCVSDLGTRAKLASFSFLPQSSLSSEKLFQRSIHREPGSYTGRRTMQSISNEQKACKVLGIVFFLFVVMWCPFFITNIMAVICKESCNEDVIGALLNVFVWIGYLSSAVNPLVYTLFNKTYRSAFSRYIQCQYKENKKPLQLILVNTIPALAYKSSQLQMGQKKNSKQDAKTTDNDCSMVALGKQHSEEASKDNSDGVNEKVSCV
Sequence of 5-hydroxytryptamine receptor 2B (P41595 whole entry): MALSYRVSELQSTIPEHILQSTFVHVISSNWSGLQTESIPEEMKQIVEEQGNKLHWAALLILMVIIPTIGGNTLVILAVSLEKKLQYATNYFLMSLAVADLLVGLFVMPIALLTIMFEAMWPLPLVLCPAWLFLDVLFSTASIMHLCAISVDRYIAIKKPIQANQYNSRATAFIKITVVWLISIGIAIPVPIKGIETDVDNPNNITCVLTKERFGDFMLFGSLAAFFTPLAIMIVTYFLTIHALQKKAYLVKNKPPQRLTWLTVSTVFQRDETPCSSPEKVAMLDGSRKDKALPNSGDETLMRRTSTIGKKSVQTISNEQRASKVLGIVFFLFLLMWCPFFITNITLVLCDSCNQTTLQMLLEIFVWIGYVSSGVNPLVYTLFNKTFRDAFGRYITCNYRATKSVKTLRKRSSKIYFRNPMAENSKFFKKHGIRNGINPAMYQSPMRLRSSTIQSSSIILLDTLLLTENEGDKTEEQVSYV

COc1cc([Se]C(F)(F)F)c(OC)cc1CCN.Cl
Ki ([1]; read-out: Ki): 3.2 nM
Ki ([1]; read-out: pKi (converted)): 3.02 nM
Ki [2]: 14 nM
Activity [3]: 29
Ratio Ki [4]: 19
EC50 [5]: 92 nM
Emax [6]: 91%
Activity [7]: Dose-Dependent Effect
Cmax [8]: 3160 ng/g
Cmax [9]: 2370 ng/g
Activity [10]: inactive
Activity [11]: Active
Activity [12]: 857
inhibition in vivo at 1 mg/kg [13]: 11%
Activity [14]: Active
Activity [15]: inactive
Activity [16]: inactive
Activity [17]: inactive
half-life [18]: > 2 h
half-life at 10 µM [19]: 16 h
Drug metabolism [20]: Metabolite_Detected
C0 at 48 h [21]: 67.2 ng/mL
clearance [22]: 328 mL/min/kg
CL renal at 48 h [23]: 1.13 mL/min/kg
AUC(0-t) at 48 h [24]: 40.3 ng·h/mL
Cmax [25]: 890 ng/mL
Tmax [26]: 2 h
AUC(0-t) at 48 h [27]: 1860 ng·h/mL
Kp at 48 h [28]: 57.9
Cmax [29]: 250 ng/mL
Tmax [30]: 4.98 min
half-life [31]: 1.53 h
AUC(0-inf) [32]: 210 ng·h/mL
clearance [33]: 79.5 mL/min/kg
AUC(0-t) at 8 h [34]: 3220 ng·h/mL
C0 at 24 h [35]: 121 ng/mL
half-life [36]: 4.31 h
AUC(0-inf) [37]: 446 ng·h/mL
MRT inf [38]: 5.58 h

Source: ChEMBL document CHEMBL5543140 (J Med Chem, 2024)
